The numbers were not newly measured in patent publication US20240390366A1, “FORMULATION AND METHOD FOR TOPICAL TREATMENT OF MYCOBACTERIUM ULCERANS IN BURULI ULCERS” (priority 2021, published 2024), which cites them from elsewhere.

With `CC(C)/N=c1\cc2n(-c3ccc(Cl)cc3)c3ccccc3nc-2cc1Nc1ccc(Cl)cc1` [Clofazimine, clofazimine], the solubility in water entry is listed as “practically insoluble”.
